Assays:
[1] = Cytotoxicity against LPS-stimulated mouse BV2 cells assessed as cell viability at 20 uM by MTT assay relative to control; type: cell-based, BV-2; conditions: read-out: Activity
[2] = Antineuroinflammatory activity in mouse BV2 cells assessed as inhibition of LPS-induced nitric oxide production after 24 hrs by Griess assay; type: functional, cell-based; conditions: BV-2, 24 h

Row | IC50 [2] [µM] | SMILES | viability at 20 µM [1] [%]
1 | 1.05 | COc1cc([C@@H](O)[C@@H](CO)Oc2ccc(/C=C/C=O)cc2OC)ccc1O | 123
2 | 31.1 | COc1cc([C@H]2OC[C@H]3[C@@H]2CO[C@@H]3c2ccc(O)c(OC)c2)ccc1O | 111
3 | 35.4 | Oc1ccc([C@@H]2OC[C@H]3[C@H](c4ccc5c(c4)OCO5)OC[C@@]23O)cc1 | 109
4 | > 500 | COc1cc([C@@H](O)[C@H](CO)Oc2c(OC)cc([C@@H]3OC[C@H]4[C@H](c5ccc(O)c(OC)c5)OC[C@@]34O)cc2OC)ccc1O | 108
5 | 10 | COc1cc([C@@H]2Oc3c(OC)cc(/C=C/C=O)cc3[C@H]2CO)cc(OC)c1O | 120
6 | 33 | COc1cc(C(OC)[C@H]2CO[C@H](c3ccc(O)c(OC)c3)[C@H]2CO)ccc1O (stereo partly drawn) | 115
7 | 32.6 | COc1cc([C@@H](O)[C@@H](CO)Oc2ccc(/C=C/CO)cc2OC)ccc1O (relative stereo) | 117
8 | 47.6 | COc1cc([C@@H](O)[C@@H](CO)Oc2ccc(C=O)cc2OC)ccc1O (relative stereo) | 116
9 | > 500 | COc1cc([C@@H]2OC[C@@]3(O)[C@H](c4ccc5c(c4)OCO5)OC[C@@H]23)ccc1O (relative stereo) | 108
10 | 25.1 | COc1cc([C@@H]2OC[C@@H]3[C@H]2CO[C@H]3c2ccc(O)c(OC)c2)ccc1O [(+)-PINORESINOL] | 115

Second part, the compound before the results:

Row | SMILES | IC50 [2] [µM] | viability at 20 µM [1] [%]
11 | COc1cc([C@@H]2Oc3c(OC)cc(/C=C/C=O)cc3[C@H]2CO)ccc1O | 7.07 | 115
12 | c1cc2c(cc1[C@@H]1OC[C@@H]3[C@H]1CO[C@H]3c1ccc3c(c1)OCO3)OCO2 | 26.3 | 126
13 | COc1cc(C(O)C(CO)Oc2c(OC)cc([C@@H]3Oc4c(OC)cc(/C=C/C=O)cc4[C@H]3CO)cc2OC)ccc1O (stereo partly drawn) | 15.3 | 129
14 | COc1cc([C@H](O)[C@@H](CO)Oc2ccc(/C=C/C=O)cc2OC)ccc1O | 0.929 | 129
15 | COc1cc(C(O)C(CO)Oc2c(OC)cc([C@@H]3OC[C@@H]4[C@H]3CO[C@H]4c3ccc(O)c(OC)c3)cc2OC)ccc1O (stereo partly drawn) | 19.3 | 121
16 | COc1cc([C@@H]2OC[C@@H]3[C@H]2CO[C@H]3c2cc(OC)c(O)c(OC)c2)cc(OC)c1O | 27.5 | 110
17 | COc1cc([C@@H](O)[C@@H](CO)Oc2c(OC)cc(/C=C/CO)cc2OC)ccc1O (relative stereo) | 23.5 | 120
18 | COc1cc(/C=C/CO)ccc1O[C@H](CO)[C@@H](O)c1cc(OC)c(O)c(OC)c1 (relative stereo) | 9.14 | 123
19 | COc1cc([C@@H]2OC[C@@H]3[C@H]2CO[C@H]3c2ccc3c(c2)OCO3)ccc1O [PIPERITOL] | 32.6 | 113

Reference: ChEMBL document CHEMBL3751724, “Bioactive lignan derivatives from the stems of Firmiana simplex” (Bioorg Med Chem Lett, 2016)
